Assay results: patent US8431563B2 (priority 2010, dated 2013)

Key:
[1] = target: T1, GKRP (Glucokinase Regulatory Protein) with human His-hepatic GK (Homo sapiens, UniProt Q14397); test: GKRP NADPH Coupled Assay; type: biochemical; settings: indirect measure of glucose-6-phosphate, fluorescence, 1 μM GKRP (10×), 20 nM GK (5×)
T1 sequence (Q14397 1-625): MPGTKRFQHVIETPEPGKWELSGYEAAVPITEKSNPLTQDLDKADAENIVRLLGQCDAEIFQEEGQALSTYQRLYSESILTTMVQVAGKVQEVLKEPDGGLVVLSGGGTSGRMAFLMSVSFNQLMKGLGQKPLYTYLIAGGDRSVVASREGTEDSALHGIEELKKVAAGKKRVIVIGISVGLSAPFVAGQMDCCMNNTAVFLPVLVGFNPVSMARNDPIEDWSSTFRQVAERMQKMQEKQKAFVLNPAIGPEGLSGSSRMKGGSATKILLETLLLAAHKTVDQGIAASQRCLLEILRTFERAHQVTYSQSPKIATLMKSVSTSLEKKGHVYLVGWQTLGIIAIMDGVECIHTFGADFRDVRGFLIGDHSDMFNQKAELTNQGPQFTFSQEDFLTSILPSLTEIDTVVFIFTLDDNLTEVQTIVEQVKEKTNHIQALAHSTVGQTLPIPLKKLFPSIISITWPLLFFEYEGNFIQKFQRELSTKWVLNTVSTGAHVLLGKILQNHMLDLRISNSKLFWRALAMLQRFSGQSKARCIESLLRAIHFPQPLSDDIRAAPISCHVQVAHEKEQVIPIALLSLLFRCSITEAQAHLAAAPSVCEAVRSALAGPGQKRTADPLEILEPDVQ
Method: (§1) This assay is used to directly measure the formation of ^13C-glucose-6-phosphate from ^13C-glucose by liquid chromatography-mass spectrometry (LC MS/MS). Begin by preparing the following solutions: Compound Buffer (CB): 50 mM Tris, pH 7.5/4 mM MgCl2/6% DMSO/fresh 10 mM DTT from 1M frozen stock. Enzyme Buffer (EB): 50 mM Tris, pH 7.5/4 mM MgCl2/6% DMSO/fresh 0.1% BSA/fresh 0.01% Brij-35 (10% BSA and 1% Brij-35 stock). GK (Glucokinase) Working Stock (5×): Dilute human His-hepatic GK to 30 nM in EB buffer. […] After 30 minutes add 10 μl of GK Working Stock (5×). Re-seal the plate and incubate for another 30 minutes at room temperature while mixing. After the second 30 minutes, stop the reaction by the addition of 50 μl of 100% acetonitrile, seal, and mix for 5-10 minutes. Run 10 μl of this sample through the LC MS/MS (API 3200, Applied Biosystems Inc., Carlsbad, Calif.).
This assay is used as an indirect measure of glucose-6-phosphate (G6P) formed from glucose due to the enzymatic activity of glucokinase. Assay format is the same as for GKRP LC MS/MS Biochemical Assay with the following exceptions. GK Working Stock (5×): Dilute human His-hepatic GK to 20 nM in EB buffer. Stop & Detection Reagent (2×): Dilute β-nicotinamide adenine dinucleotide phosphate sodium salt (β-NADP) (Aldrich-Sigma, St. Louis, Mo.) to 2 mM from 100 mM stock (stock in 10 mM Tris, pH 9.2) and dilute glucose-6-phosphate dehydrogenase (Aldrich-Sigma, St. Louis, Mo.) to 0.04 Unit/μl from 10 Unit/μl (stock in 10 mM Tris pH 7.5/0.05% Brij-35) in 0.2 M Tris, pH 9.2/8% DMSO. After the initial 30 minute incubation add 10 μl of 20 nM GK diluted in EB (5×). Re-seal the plate and incubate for another 1 hour at room temperature while mixing. After 1 hour remove the seal and add 50 μl of Stop & Detection Reagent and incubate for 5 minutes at room temperature while mixing.

[2] = target: T1, GKRP (Glucokinase Regulatory Protein) with human His-hepatic GK; test: GKRP LC MS/MS Biochemical Assay; settings: 13C-glucose-6-phosphate formation, 1 μM GKRP (10×), 30 nM GK (5×)
Method: GKRP LC MS/MS Biochemical Assay
as §1

[3] = read-out: GK-GKRP EC50 (NADPH-coupled)
[4] = read-out: GK-GKRP EC50 (LC MS/MS)

| Compound | EC50 ([1]; GK-GKRP EC50 (NADPH-coupled)) [µM] | EC50 ([2]; GK-GKRP EC50 (LC MS/MS)) [µM] | EC50 [1, 3] [µM] | EC50 [2, 4] [µM] |
| --- | --- | --- | --- | --- |
| CC(O)(c1ccc(N2CCN(S(=O)(=O)c3cccs3)CC2c2cc(Cl)ccc2Cl)cc1)C(F)(F)F (mixture of isomers) [Example 13, 2-(4-(2-(2,5-dichlorophenyl)-4-(2-thiophenylsulfonyl)-1-piperazinyl)phenyl)-1,1,1-trifluoro-2-propanol] | 2.64 | 1.96 | – | – |
| C[C@H]1CN(S(=O)(=O)c2ccccc2)CCN1c1ccc(C(C)(O)C(F)(F)F)cc1 (mixture of isomers) [Example 28, 1,1,1-trifluoro-2-(4-((2S)-2-methyl-4-(phenylsulfonyl)-1-piperazinyl)phenyl)-2-propanol] | 3.12 | 4.01 | – | – |
| C[C@H]1CN(S(=O)(=O)c2nnc(N)s2)CCN1c1ccc(C(C)(O)C(F)(F)F)cc1 (mixture of isomers) [Example 35, 2-(4-((2S)-4-((5-amino-1,3,4-thiadiazol-2-yl)sulfonyl)-2-methyl-1-piperazinyl)phenyl)-1,1,1-trifluoro-2-propanol] | 3.04 | 5.62 | – | – |
| CC(O)(c1ccc(N2CCN(S(=O)(=O)c3cccs3)CC2Cc2ccccc2F)cc1)C(F)(F)F (mixture of isomers) [Example 38, 1,1,1-trifluoro-2-(4-(2-(2-fluorobenzyl)-4-(2-thiophenylsulfonyl)-1-piperazinyl)phenyl)-2-propanol] | 0.515 | 0.85 | – | – |
| CC(O)(c1ccc(N2CCN(S(=O)(=O)c3cccs3)CC2Cc2cccc(F)c2)cc1)C(F)(F)F (mixture of isomers) [Example 39, 1,1,1-trifluoro-2-(4-(2-(3-fluorobenzyl)-4-(2-thiophenylsulfonyl)-1-piperazinyl)phenyl)-2-propanol] | 0.802 | 1.09 | – | – |
| CC(O)(c1ccc(N2CCN(S(=O)(=O)c3cccs3)CC2Cc2ccc(F)cc2)cc1)C(F)(F)F (mixture of isomers) [Example 40, 1,1,1-trifluoro-2-(4-(2-(4-fluorobenzyl)-4-(2-thiophenylsulfonyl)-1-piperazinyl)phenyl)-2-propanol] | 0.895 | 1.25 | – | – |
| CC(O)(c1ccc(N2CCN(S(=O)(=O)c3cccs3)CC2COCc2ccccc2)cc1)C(F)(F)F (mixture of isomers) [Example 44 Step 5, 2-(4-(2-((benzyloxy)methyl)-4-(2-thiophenylsulfonyl)-1-piperazinyl)phenyl)-1,1,1-trifluoro-2-propanol] | 0.42 | 0.617 | – | – |
| CC1(C)CN(CC2CN(S(=O)(=O)c3cccs3)CCN2c2ccc(C(C)(O)C(F)(F)F)cc2)CCO1 (mixture of isomers) [Example 47, 2-(4-(2-((2,2-dimethyl-4-morpholinyl)methyl)-4-(2-thiophenylsulfonyl)-1-piperazinyl)phenyl)-1,1,1-trifluoro-2-propanol] | 0.182 | 0.295 | – | – |
| CC(O)(c1ccc(N2CCN(S(=O)(=O)c3cccs3)CC2CN2CCOCC2CO)cc1)C(F)(F)F (mixture of isomers) [Example 48, 1,1,1-trifluoro-2-(4-(2-((3-(hydroxymethyl)-4-morpholinyl)methyl)-4-(2-thiophenylsulfonyl)-1-piperazinyl)phenyl)-2-propanol] | 0.389 | 0.606 | – | – |
| CC1CN(CC2CN(S(=O)(=O)c3cccs3)CCN2c2ccc(C(C)(O)C(F)(F)F)cc2)CCO1 (mixture of isomers) [Example 49, 1,1,1-trifluoro-2-(4-(2-((2-methyl-4-morpholinyl)methyl)-4-(2-thiophenylsulfonyl)-1-piperazinyl)phenyl)-2-propanol] | 0.647 | 0.707 | – | – |
| CC(O)(c1ccc(N2CCN(S(=O)(=O)c3cccs3)CC2CN2CCC(F)(F)CC2)cc1)C(F)(F)F (mixture of isomers) [Example 51, 2-(4-(2-((4,4-difluoro-1-piperidinyl)methyl)-4-(2-thiophenylsulfonyl)-1-piperazinyl)phenyl)-1,1,1-trifluoro-2-propanol] | 1.05 | 1.53 | – | – |
| CC(O)(c1ccc(N2CCN(S(=O)(=O)c3cccs3)CC2CN2CCOC(CO)C2)cc1)C(F)(F)F (mixture of isomers) [Example 52, 1,1,1-trifluoro-2-(4-(2-((2-(hydroxymethyl)-4-morpholinyl)methyl)-4-(2-thiophenylsulfonyl)-1-piperazinyl)phenyl)-2-propanol] | 1.62 | 1.17 | – | – |
| CC(O)(c1ccc(N2CCN(S(=O)(=O)c3cccs3)CC2CN2CC(O)C2)cc1)C(F)(F)F (mixture of isomers) [Example 53, 1-((4-(2-thiophenylsulfonyl)-1-(4-(2,2,2-trifluoro-1-hydroxy-1-methylethyl)phenyl)-2-piperazinyl)methyl)-3-azetidinol] | 2.26 | 1.79 | – | – |
| CC(C)(CO)NCC1CN(S(=O)(=O)c2cccs2)CCN1c1ccc(C(C)(O)C(F)(F)F)cc1 (mixture of isomers) [Example 54, 2-methyl-2-(((4-(2-thiophenylsulfonyl)-1-(4-(2,2,2-trifluoro-1-hydroxy-1-methylethyl)phenyl)-2-piperazinyl)methyl)amino)-1-propanol] | – | – | 2.97 | 2.78 |
| CC(O)(c1ccc(N2CCN(S(=O)(=O)c3cccs3)CC2CC#N)cc1)C(F)(F)F (mixture of isomers) [Example 55, (4-(2-thiophenylsulfonyl)-1-(4-(2,2,2-trifluoro-1-hydroxy-1-methylethyl)phenyl)-2-piperazinyl)acetonitrile] | – | – | 3.03 | 3.94 |
| CC(C)CC1CN(S(=O)(=O)c2cccs2)CCN1c1ccc(C(C)(O)C(F)(F)F)cc1 (mixture of isomers) [Example 57, 1,1,1-trifluoro-2-(4-(2-(2-methylpropyl)-4-(2-thiophenylsulfonyl)-1-piperazinyl)phenyl)-2-propanol] | – | – | 0.655 | 1.02 |
| CC(O)(c1ccc(N2CCN(S(=O)(=O)c3cccs3)CC2CC2CCCCC2)cc1)C(F)(F)F (mixture of isomers) [Example 58, 2-(4-(2-(cyclohexylmethyl)-4-(2-thiophenylsulfonyl)-1-piperazinyl)phenyl)-1,1,1-trifluoro-2-propanol] | – | – | 1 | 1.32 |
| CC(O)(c1ccc(N2CCN(S(=O)(=O)c3cccs3)CC2COCc2cccnc2)cc1)C(F)(F)F (mixture of isomers) [Example 59, 1,1,1-trifluoro-2-(4-(2-((3-pyridinylmethoxy)methyl)-4-(2-thiophenylsulfonyl)-1-piperazinyl)phenyl)-2-propanol] | 4.93 | 4.93 | – | – |
| CC(O)(c1ccc(N2CCN(S(=O)(=O)c3cccs3)CC2CN2CCOCC2)cc1)C(F)(F)F (mixture of isomers) [Example 61, 1,1,1-trifluoro-2-(4-(2-(4-morpholinylmethyl)-4-(2-thiophenylsulfonyl)-1-piperazinyl)phenyl)-2-propanol] | 0.23 | 0.355 | – | – |
| O=S(=O)(c1ccccc1)N1CCN(c2ncc(C(O)(C(F)(F)F)C(F)(F)F)cn2)CC1 [Example 23, 1,1,1,3,3,3-hexafluoro-2-(2-(4-(phenylsulfonyl)-1-piperazinyl)-5-pyrimidinyl)-2-propanol] | – | 1.31 | – | – |
